Key:
human 5HT2A receptor = target: T1, human 5HT2A receptor (Homo sapiens, UniProt P28223); assay: 5HT2A binding in L929sA cells (radioligand binding, 125I ligand); details: membranes of L929sA cells expressing human 5HT2A receptors; 0.1 nM 125I radioligand; pIC50 = −log IC50, IC50 in M
T1 construct: expressed in transfected cells; host or cells: L929sA cells (mouse fibro carcinoma cells), stably transfected, induced with m-interferon-b
Method: (§1) 5HT2 receptors were measured by radioligand binding studies either in homogenates from rat brains or in a membranes fraction prepared from L929sA cells (mouse fibro carcinoma cells), stably transfected with human 5HT2A receptor cDNA.
5HT2A Binding in L929sA Cells
L929sA cells expressing human 5HT2A receptors were cultured in Petri dishes in DMEM medium (Gibco cat.nr. 41965-039) enriched with 5% heat inactivated fetal calf serum and in the presence of penicillin and streptomycin sulphate. 24 h before collection, cells were induced with m-interferon-b (1000 U/ml medium). Cells were collected by scrapping and centrifugation at low speed (5 minutes at 1500 g). The cells were homogenized and centrifuged for 10 minutes at 23.000 g. The resulting pellet was diluted in Tris-HCl 50 mM pH 7.7 and stored at −70° C. On the day of the experiment, a vial was thawed and diluted in Tris-HCl buffer. 5HT2A receptors are labeled with 0.1 nM [^125I] 4-amino-N-[1-[3-(4-fluorophenoxy)propyl]-4-methyl-4-piperidinyl]-2-methoxybenzamide dihydrate. Membranes (0.2 ml) were incubated with the radioligand for 60 minutes at 37° C. in a total volume of 0.25 ml. The reaction was stopped by rapid filtration and the filter rounds were counted in an auto-gamma spectrophotometer.
(§2) Counting data from assays in the presence of test compound were automatically expressed as percent of total binding measured in the absence of test compound. Therefrom, the pIC50 (−log IC50)-values (IC50=concentration in M inhibiting 50% of the specific radioligand binding or neurotransmitter uptake) were derived and are listed in Table 9 (a “-” means “not measured”).

5HT2 receptors = target: T2, 5HT2 receptors (Rattus norvegicus, UniProt P14842); assay: 5HT2 binding in rat frontal cortex (radioligand binding, [3H]ketanserin); details: rat frontal cortex membrane fraction; 1 nM [3H]ketanserin; pIC50 = −log IC50, IC50 in M
T2 construct: 5HT2 receptors were measured in a rat frontal cortex membrane fraction; from tissue; host or cells: Wistar rat frontal cortex membrane fraction
Method: as §1
5HT2 Binding in Rat Frontal Cortex
5HT2 receptors were measured in a rat frontal cortex membrane fraction. Herefore wistar rats were killed by decapitation, brains were removed and frontal cortex was dissected. The frontal cortex was homogenized in Tris-HCL buffer 50 mM pH7.7. The homogenate was centrifuged at 23.000 g for 10 minutes. The resulting pellet was washed twice by resuspension and recentrifugation and the pellet was finally suspended in Tris-HCL buffer 50 mM pH7.7 in a dilution of 100 (vol/wet weight of tissue). 400 μl of the homogenate was incubated with 1 nM [^3H]ketanserin in a total incubation volume of 0.5 ml for 30 minutes at 37° C. The incubation was stopped by rapid filtration using a manual filtration manifold. The filters were rinsed twice with ice-cold buffer and were counted in a liquid scintillation counter. Non-specific binding was determined in the presence of 1 μM methysergide.
as §2

T1 sequence (P28223 whole entry): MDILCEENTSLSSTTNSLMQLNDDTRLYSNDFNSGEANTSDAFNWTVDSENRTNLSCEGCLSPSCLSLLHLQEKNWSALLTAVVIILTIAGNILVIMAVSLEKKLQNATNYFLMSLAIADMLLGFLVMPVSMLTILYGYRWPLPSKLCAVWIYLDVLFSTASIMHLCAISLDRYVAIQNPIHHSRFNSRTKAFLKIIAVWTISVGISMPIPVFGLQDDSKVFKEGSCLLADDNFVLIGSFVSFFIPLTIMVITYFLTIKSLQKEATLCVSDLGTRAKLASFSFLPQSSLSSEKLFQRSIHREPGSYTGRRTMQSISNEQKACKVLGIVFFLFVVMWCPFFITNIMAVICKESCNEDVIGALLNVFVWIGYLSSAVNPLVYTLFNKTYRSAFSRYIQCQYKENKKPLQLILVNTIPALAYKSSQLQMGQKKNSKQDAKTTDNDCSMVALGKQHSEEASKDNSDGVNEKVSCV
T2 sequence (P14842 whole entry): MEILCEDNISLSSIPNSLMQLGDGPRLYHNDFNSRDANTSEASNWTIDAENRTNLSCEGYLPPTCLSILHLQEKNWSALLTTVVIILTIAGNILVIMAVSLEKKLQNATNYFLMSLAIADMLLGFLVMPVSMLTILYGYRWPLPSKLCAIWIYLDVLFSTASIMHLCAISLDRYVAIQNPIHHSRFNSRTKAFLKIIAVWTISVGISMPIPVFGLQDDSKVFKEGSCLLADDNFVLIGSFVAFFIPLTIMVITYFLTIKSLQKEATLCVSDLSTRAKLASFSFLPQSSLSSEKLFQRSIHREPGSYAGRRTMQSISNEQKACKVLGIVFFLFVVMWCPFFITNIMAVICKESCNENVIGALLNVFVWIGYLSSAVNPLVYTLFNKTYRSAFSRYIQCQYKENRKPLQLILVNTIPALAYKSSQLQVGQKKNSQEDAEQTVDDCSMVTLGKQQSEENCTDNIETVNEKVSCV

SMILES | IC50 (human 5HT2A receptor) [nM] | IC50 (5HT2 receptors) [nM] | 5HT2A-binding (human 5HT2A receptor)
Cc1nc2ccc(Br)cn2c(=O)c1CCN1CCc2[nH]c3cc(Cl)ccc3c2C1 [Compound 14] | 417 |  | 
Cc1nc2n(c(=O)c1CCN1CCc3[nH]c4cc(Cl)ccc4c3C1)CCS2 [Compound 12] | 617 |  | 
Cc1nc2ccc(Cl)cn2c(=O)c1CCN1CCc2[nH]c3cc(Cl)ccc3c2C1 [Compound 17] | 251 |  | 
Cc1nc2scc(C)n2c(=O)c1CCN1CCc2[nH]c3ccc(Cl)cc3c2C1 [Compound 23] | 2.34 | 1 | 
Cc1nc2c(Cl)cc(C(F)(F)F)cn2c(=O)c1CCN1CCc2[nH]c3cc(Cl)ccc3c2C1 [Compound 15] | 10000 |  | 
Cc1nc2n(c(=O)c1CCN1CCc3[nH]c4ccc(F)cc4c3C1)CCCS2 [Compound 2, 7-[2-(8-fluoro-1,3,4,5-tetrahydro-2H-pyrido[4,3-b]indol-2-yl)ethyl]-3,4-dihydro-8-methyl-2H,6H-pyrimido[2,1-b][1,3]-thiazin-6-one] |  | 36.3 | 
Cc1nc2sccn2c(=O)c1CCN1CCc2[nH]c3ccc(Cl)cc3c2C1 [Compound 25] | 3.31 |  | 
Cc1nc2scc(C)n2c(=O)c1CCN1CCc2[nH]c3cc(Cl)ccc3c2C1 [Compound 8] | 9.77 | 4.27 | 
Cc1nc2ccccn2c(=O)c1CCN1CCc2[nH]c3ccc(Cl)cc3c2C1 [Compound 28] | 7.59 | 1.23 | 
COc1cccn2c(=O)c(CCN3CCc4[nH]c5cc(Cl)ccc5c4C3)c(C)nc12 [Compound 20, 3-[2-(7-chloro-1,3,4,5-tetrahydro-2H-pyrido[4,3-b]indol-2-yl)ethyl]-9-methoxy-2-4-H-pyrido[1,2-a]pyrimidin-4-one] | 316 |  | 
Cc1nc2n(c(=O)c1CCN1CCc3[nH]c4ccc(Cl)cc4c3C1)CCS2 [Compound 26] | 6.17 |  | 
Cc1nc2scc(C)n2c(=O)c1CCN1CCc2[nH]c3ccc(F)cc3c2C1 [Compound 5] | 3.09 |  | 
Cc1ccc2nc(C)c(CCN3CCc4[nH]c5cc(Cl)ccc5c4C3)c(=O)n2c1 [Compound 16] | 126 |  | 
Cc1nc2c(C)cccn2c(=O)c1CCN1CCc2[nH]c3cc(Cl)ccc3c2C1 [Compound 13] | 1480 |  | 
Cc1nc2n(c(=O)c1CCN1CCc3[nH]c4ccc(F)cc4c3C1)CCCC2 [Compound 4] |  | 12.6 | 
Cc1nc2n(c(=O)c1CCN1CCc3[nH]c4cc(Cl)ccc4c3C1)CCCS2 [Compound 11] | 575 |  | 
Cc1nc2n(c(=O)c1CCN1CCc3[nH]c4cc(Cl)ccc4c3C1)CCCC2 [Compound 10] | 457 | 25.7 | 
Cc1nc2n(c(=O)c1CCN1CCc3[nH]c4ccc(Cl)cc4c3C1)CCCS2 [Compound 24] | 8.51 | 1.95 | 
Cc1nc2sccn2c(=O)c1CCN1CCc2[nH]c3ccc(F)cc3c2C1 [Compound 6] | 6.46 | 1 | 
Cc1nc2ccccn2c(=O)c1CCN1CCc2[nH]c3ccc(F)cc3c2C1 [Compound 1] | 13.2 | 3.89 | 
Cc1ccn2c(=O)c(CCN3CCc4[nH]c5cc(Cl)ccc5c4C3)c(C)nc2c1 [Compound 22] | 631 |  | 
Cc1nc2sccn2c(=O)c1CCN1CCc2[nH]c3cc(Cl)ccc3c2C1 [Compound 7] | 22.9 | 7.59 | 
Cc1cc(C)n2c(=O)c(CCN3CCc4[nH]c5cc(Cl)ccc5c4C3)c(C)nc2c1.O=C(O)/C=C/C(=O)O [Compound 18] |  |  | 5.6
Cc1ccc2[nH]c3c(c2c1)CN(CCc1c(C)nc2sccn2c1=O)CC3 [Compound 30] | 8.32 | 1.62 | 
Cc1nc2ccccn2c(=O)c1CCN1CCc2[nH]c3cc(Cl)ccc3c2C1 [Compound 9] | 57.5 | 9.55 | 
Cc1nc2n(c(=O)c1CCN1CCc3[nH]c4ccc(Cl)cc4c3C1)CCCC2 [Compound 27] |  | 2.82 | 

The next lines start with the values.

IC50 (human 5HT2A receptor) [nM] | IC50 (5HT2 receptors) [nM] | 5HT2A-binding (human 5HT2A receptor) | SMILES
44.7 | 3.24 |  | Cc1nc2ccccn2c(=O)c1CCN1CCc2[nH]c3ccccc3c2C1 [Compound 37]
 | 5.01 |  | Cc1nc(N)n(C)c(=O)c1CCN1CCc2[nH]c3ccccc3c2C1 [Compound 100]
49 | 28.8 |  | COc1ccc2[nH]c3c(c2c1)CN(CCc1c(C)nc2n(c1=O)CCCC2)CC3 [Compound 52]
4.47 | 0.398 |  | Cc1ccc2[nH]c3c(c2c1)CN(CCc1c(C)nc2scc(C)n2c1=O)CC3 [Compound 32]
23.4 | 17.8 |  | COc1ccc2[nH]c3c(c2c1)CN(CCc1c(C)nc2ccccn2c1=O)CC3 [Compound 53]
5.01 | 2.63 |  | Cc1nc2scc(C)n2c(=O)c1CCN1CCc2[nH]c3ccccc3c2C1 [Compound 39]
 | 550 |  | Fc1ccc2[nH]c3c(c2c1)CN(CCCCNc1nc2ccccc2s1)CC3 [Compound 108, N-2-benzothiazolyl-8-fluoro-1,3,4,5,-tetrahydro-2H-pyrido[4,3-b]indole-2-butanamine]
4.57 |  |  | Cc1nc2n(c(=O)c1CCN1CCc3c(c4ccccc4n3-c3ccccc3)C1)CCS2 [Compound 86]
6.61 |  |  | Cc1nc2scc(C)n2c(=O)c1CCN1CCc2c(c3cc(F)ccc3n2-c2ccc(F)cc2)C1 [Compound 68]
6.92 |  |  | Cc1nc2n(c(=O)c1CCN1CCc3c(c4ccccc4n3-c3ccccc3)C1)CCCC2 [Compound 89]
 | 14.5 |  | Cc1nc2n(c(=O)c1CCN1CCc3[nH]c4ccccc4c3C1)CCS2 [Compound 41]
4.37 | 1.82 |  | Cc1nc2n(c(=O)c1CCN1CCc3c(c4cc(F)ccc4n3-c3ccc(F)cc3)C1)CCS2 [Compound 67]
 | 3.72 |  | Cc1ccc2[nH]c3c(c2c1)CN(CCc1c(C)nc2n(c1=O)CCCC2)CC3 [Compound 35]
 | 11.2 |  | Cc1nc2ccccn2c(=O)c1CCN1CCc2c(c3ccccc3n2Cc2ccccc2)C1 [Compound 69]
 | 4.47 |  | Cc1ccc2[nH]c3c(c2c1)CN(CCc1c(C)nc2n(c1=O)CCCS2)CC3 [Compound 33]
316 |  |  | Cc1ccc2[nH]c3c(c2c1)CN(CCc1c(C)nc2n(c1=O)CCCC2)CC3 [Compound 36]
12.6 | 8.13 |  | Cc1nc2sccn2c(=O)c1CCN1CCc2[nH]c3ccccc3c2C1 [Compound 38]

Source: patent US6506768B2, “Tetrahydro γ-carbolines” (Janssen Pharmaceutica N.V., priority 1997, dated 2003)
